Results published in US5399697A, “N,N',N'-trisubstituted-5-bisaminomethylene-1,3-dioxane-4,6-dione inhibitors of acyl-CoA:cholesterol-acyl transferase” (American Home Products Corporation, priority 1993, dated 1995).

How the values were obtained:
lipoperoxide = experiment: Antioxidant properties, lipoperoxide study of Yagi; type: biochemical; settings: result in words
Description: (§1) The use of antioxidants in the treatment of atherosclerosis is also known to be of therapeutic value.

[1] = system: low density lipoprotein oxidation; experiment: Antioxidant properties, low density lipoprotein oxidation studies (Parthasarathy et al.); type: biochemical; settings: result in words
Description: as §1

[2] = system: acyl-coenzyme A: cholesterol acyltransferase; experiment: Inhibition of ACAT / intracellular cholesterol esterification in vitro (procedure of Ross et al.); type: cell-based; settings: for IC50: read-out: IC50
plasma cholesterol = experiment: Plasma cholesterol in cholesterol-cholic acid fed rats; type: in vivo; settings: Rattus norvegicus, oral gavage; for ED50: fifty percent reduction of plasma cholesterol
Procedure: In addition, representative compounds were studied in vivo in cholesterol-cholic acid fed rats to determine the percent decrease of cholesterol in their plasma. This study involves rats which are, prior to testing, trained for one week to eat over a four hour time period each day. Upon initiation of the experiment, the rats diet is supplemented with 1.0 percent cholesterol and 0.25 percent cholic acid. The rats are dosed with the test compound by oral gavage just prior to adjust following the four hour feeding period. This is repeated for four days. On the fifth day, the rats are sacrificed and the total plasma cholesterol content is determined. The percent decrease in elevated plasma cholesterol levels is calculated in comparison with […].

cholesterol absorption = experiment: 14C-cholesterol absorption in normal rats (oral gavage); type: in vivo; settings: Rattus norvegicus; for ED50: normal fed rats
Procedure: Representative compounds were further tested in vivo to establish the percent inhibition of cholesterol absorption. In this study, normal rats were dosed (oral gavage) with ^14 C-cholesterol plus the test compound. Blood samples taken at six hours and/or intermittently up to twenty-four hours were analyzed and the percent inhibition of cholesterol absorption was calculated.

[3] = 96 h, four days, read-out: % Decrease in Plasma Cholesterol
[4] = normal rats, read-out: % Inhibition of Absorption

Row | Compound | antioxidant properties in the lipoperoxide study (lipoperoxide) | antioxidant properties in low density lipoprotein oxidation studies [1] | % Inhibition ([2]; 25 μM) | IC50 [2] | change in vivo at 40 mg/kg (plasma cholesterol; [3]) | ED50 (plasma cholesterol) | ED50 (cholesterol absorption) | further results
1 | CCCCCC(C)N(Cc1ccc(CC(C)(C)C)cc1)C(Nc1cc(C(C)(C)C)c(O)c(C(C)(C)C)c1)=C1C(=O)OC(C)(C)OC1=O (stereo not drawn) [Compound 75] | demonstrated antioxidant properties | demonstrated antioxidant properties |  |  |  |  |  | 
2 | CCCCCCOc1ccc(NC(=C2C(=O)OC(C)(C)OC2=O)N(Cc2ccc(CC(C)C)cc2)C(C)CCCCC)cc1 (stereo not drawn) [Compound 43, 5-[[[4-(Hexyloxy)phenyl]amino][(1-methylhexyl)[[4-(2methylpropyl)phenyl]methyl]amino]-methylene]-2,2-dimethyl-1,3-dioxane-4,6,-dione] |  |  | 97% | 410 nM | -67% |  |  | change in vivo at 10 mg/kg (cholesterol absorption; [4]): -52%
3 | CCCCCC(C)N(Cc1ccc(CC(C)(C)C)cc1)C(Nc1ccc(N(C)C)cc1C)=C1C(=O)OC(C)(C)OC1=O (stereo not drawn) [Compound 47] |  |  | 98% | 260 nM |  | 16 mg/kg | 3 mg/kg | change in vivo at 10 mg/kg (cholesterol absorption; [4]): -83%
4 | CCCCCc1ccc(CN(C(Nc2ccc(N(C)C)cc2)=C2C(=O)OC(C)(C)OC2=O)C(C)CCCCC)cc1 (stereo not drawn) [Compound 41, 5-[[[4-(Dimethylamino)phenyl]amino][(1-methylhexyl)[(4-pentylphenyl)methyl]amino]-methylene]-2,2-dimethyl-1,3-dioxane-4,6-dione] |  |  | 98% | 260 nM | -89% | 7 mg/kg | 3 mg/kg | 
5 | CCCCCCCN(Cc1ccc(CC(C)(C)C)cc1)C(Nc1ccc(OC)cc1OC)=C1C(=O)OC(C)(C)OC1=O [Compound 48, 5-[[(2,4-Dimethoxyphenyl)amino][[[4-(2,2-dimethylpropyl)phenyl]methyl]heptylamino]-methylene]-2,2-dimethyl-1,3-dioxane-4,6-dione] |  |  | 94% | 2900 nM |  | 25 mg/kg | 11 mg/kg | change in vivo at 100 mg/kg (plasma cholesterol; 96 h, four days, 100 mg/kg, read-out: % Decrease in Plasma Cholesterol): -60%; change in vivo at 200 mg/kg (cholesterol absorption; [4]): -84%
6 | CCCCCCCN(Cc1ccc(CC(C)(C)C)cc1)C(Nc1cc(C(C)(C)C)c(O)c(C(C)(C)C)c1)=C1C(=O)OC(C)(C)OC1=O [Compound 76, 5-[[[3,5-Bis(1,1-dimethylethyl)-4,1-hydrophenyl]amino][[[4-(2,2-dimethylpropyl)phenyl]methyl]heptylamino]methylene]-2,2-dimethyl-1,3-dioxane-4,6-dione] | demonstrated antioxidant properties | demonstrated antioxidant properties | 96% | 60 nM |  |  |  | 
7 | CCCCCCCN(Cc1ccc(C(C)(C)C)cc1)C(Nc1ccc(OC)cc1OC)=C1C(=O)OC(C)(C)OC1=O [Compound 2] |  |  |  | 900 nM |  | 99 mg/kg | 44 mg/kg | % Inhibition ([2]; 50 μM): 85%; change in vivo at 200 mg/kg (cholesterol absorption; [4]): -88%
8 | CCCCCC(C)N(Cc1ccc(CC(C)(C)C)cc1)C(Nc1ccc(N(C)C)cc1)=C1C(=O)OC(C)(C)OC1=O (stereo not drawn) [Compound 37] |  |  | 99% | 690 nM | -72% | 18 mg/kg |  | change in vivo at 50 mg/kg (cholesterol absorption; normal rats, 50 mg/kg, read-out: % Inhibition of Absorption): -85%
9 | CCCCCCN(Cc1ccc(CC(C)C)cc1)C(Nc1cc(C(C)(C)C)c(O)c(C(C)(C)C)c1)=C1C(=O)OC(C)(C)OC1=O [Compound 77] | demonstrated antioxidant properties | demonstrated antioxidant properties | 95% |  |  |  |  | 
10 | CCCCCC(C)N(Cc1ccc(C(C)(C)C)cc1)C(Nc1ccc(OCCCC)cc1)=C1C(=O)OC(C)(C)OC1=O (stereo not drawn) [Compound 27, 5-[[(4-Butoxyphenyl)amino][[[4-(1,1-dimethylethyl)phenyl]methyl](1-methylhexyl)amino]-methylene]-2,2-dimethyl-1,3-dioxane-4,6-dione] |  |  | 96% | 230 nM | -31% |  |  | change in vivo at 20 mg/kg (cholesterol absorption; normal rats, 20 mg/kg, read-out: % Inhibition of Absorption): -58%
11 | CCCCCCN(Cc1ccc(CC(C)(C)C)cc1)C(Nc1cc(C(C)(C)C)c(O)c(C(C)(C)C)c1)=C1C(=O)OC(C)(C)OC1=O [Compound 79, 5-[[[3,5-Bis(1,1-dimethylethyl)-4-hydroxyphenyl]amino][[[4-(2,2-dimethylpropyl)phenyl]methyl]hexylamino]methylene]-2,2-dimethyl-1,3-dioxane-4,6-dione] | demonstrated antioxidant properties | demonstrated antioxidant properties |  |  |  |  |  | 
